IC50 and inhibition data for 34 compounds are collected here from US7799824B2, “Quaternary salt CCR2 antagonists” (OraPharma, Inc., priority 2004, dated 2010).

This test has as its target T1, CCR2 (Homo sapiens, UniProt P41597).
T1 sequence (P41597 1-360 isoform P41597-2): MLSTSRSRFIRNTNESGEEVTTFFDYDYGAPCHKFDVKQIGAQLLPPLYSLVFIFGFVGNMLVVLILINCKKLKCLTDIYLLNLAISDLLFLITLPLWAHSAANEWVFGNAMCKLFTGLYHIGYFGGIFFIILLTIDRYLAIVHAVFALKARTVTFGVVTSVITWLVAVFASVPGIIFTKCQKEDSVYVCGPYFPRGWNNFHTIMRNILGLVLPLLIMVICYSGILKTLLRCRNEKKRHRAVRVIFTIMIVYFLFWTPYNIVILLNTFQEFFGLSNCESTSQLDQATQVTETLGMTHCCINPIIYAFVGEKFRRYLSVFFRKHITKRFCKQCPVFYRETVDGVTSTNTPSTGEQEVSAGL
The test is described as follows: MCP-1 Receptor Binding Assay in THP-1 Cells. The following applies: for IC50: THP-1 cells, 0.5 nM 125I labeled MCP-1, 2 hours at 30° C., read-out: Mean Ligand Binding IC50 (inhibition of MCP-1 binding to CCR2); for inhibition at 25 µM: MCP-1 binding to CCR2, test concentration of 25 μM, unless indicated otherwise, read-out: % Inhibition Ligand Binding. As to the method: THP-1 cells were obtained from American Type Culture Collection (Manassas, Va., USA). […] The cell density was maintained between 0.5×10^6 cells/mL.
Cells were then harvested onto a filter plate, dried, and 20 μL of Microscint 20 was added to each well. Plates were counted in a TopCount NXT, Microplate Scintillation & Luminescence Counter (Perkin-Elmer Life Sciences, Inc. Boston, Mass.). Blank values (buffer only) were subtracted from all values and drug treated values were compared to vehicle treated values. 1 μM cold MCP-1 was used for nonspecific binding.

As a reminder, the IC50 is the concentration needed to halve the response being measured. Turning to `C[N+](C)(Cc1ccc(CNC(=O)C=Cc2cccc(Br)c2)cc1)C1CCCCC1` [Cpd 1, (4-{[3-(3-bromo-phenyl)-acryloylamino]-methyl}-benzyl)-cyclohexyl-dimethyl-ammonium iodide], the IC50 is 2.3 µM.
Take `C[N+](C)(Cc1ccc(CNC(=O)c2cccc(Br)c2)cc1)C1CCCCC1` [Cpd 2, {4-[(3-bromo-benzoylamino)-methyl]-benzyl}-cyclohexyl-dimethyl-ammonium iodide]: the IC50 was 5.5 µM.
As for `C[N+](C)(Cc1ccc(CNC(=O)c2cccc(C(F)(F)F)c2)cc1)C1CCCCC1` [Cpd 3, cyclohexyl-dimethyl-{4-[(3-trifluoromethyl-benzoylamino)-methyl]-benzyl}-ammonium iodide], the IC50 worked out at 4.3 µM.
Regarding `C[N+](C)(Cc1ccc(CNC(=O)C=Cc2ccc(Cl)c(Cl)c2)cc1)C1CCOCC1` [Cpd 4, (4-{[3-(3,4-dichloro-phenyl)-acryloylamino]-methyl}-benzyl)-dimethyl-(tetrahydro-pyran-4-yl)-ammonium iodide], the IC50 was determined as 3.1 µM.
Regarding `C[N+](C)(Cc1ccc(CNC(=O)C=Cc2cccc(Br)c2)cc1)C1CCOCC1` [Cpd 5, (4-{[3-(3-bromo-phenyl)-acryloylamino]-methyl}-benzyl)-dimethyl-(tetrahydro-pyran-4-yl)-ammonium iodide], the IC50 was 8.3 µM.
As a reminder, the inhibition is how much of the control response was suppressed. As for `C[N+](C)(Cc1cccc(NC(=O)c2cccc(Br)c2)c1)C1CCOCC1` [Cpd 8, [3-(3-bromo-benzoylamino)-benzyl]-dimethyl-(tetrahydro-pyran-4-yl)-ammonium iodide], the inhibition at 25 µM came to 34%.
For `C[N+](C)(Cc1ccc(NC(=O)c2cc(Cl)ccc2Cl)cc1)C1CCOCC1` [Cpd 11, [4-(2,5-dichloro-benzoylamino)-benzyl]-dimethyl-(tetrahydro-pyran-4-yl)-ammonium iodide], the IC50 stood at 3.1 µM.
`C[N+](C)(Cc1ccc(NC(=O)c2c(Cl)cccc2Cl)cc1)C1CCOCC1` [Cpd 12, [4-(2,6-dichloro-benzoylamino)-benzyl]-dimethyl-(tetrahydro-pyran-4-yl)-ammonium iodide]: the inhibition at 25 µM is 38%.
For the compound `C[N+](C)(Cc1ccc(NC(=O)c2ccc(Cl)c(Cl)c2)cc1)C[C@@H]1CCCO1` [Cpd 15, (2S)-[4-(3,4-dichloro-benzoylamino)-benzyl]-dimethyl-(tetrahydro-furan-2-ylmethyl)-ammonium iodide], the IC50 was found to be 2 µM.
Take `C[N+](C)(Cc1ccc(NC(=O)c2ccc(Cl)c(Cl)c2)cc1)C[C@H]1CCCO1` [Cpd 16, (2R)-[4-(3,4-dichloro-benzoylamino)-benzyl]-dimethyl-(tetrahydro-furan-2-ylmethyl)-ammonium iodide]: the IC50 was found to be 0.85 µM.
On to `C[N+](C)(Cc1ccc(NC(=O)c2ccc(Cl)c(Cl)c2)cc1)C1CCSC1` (stereo not shown) [Cpd 19, [4-(3,4-dichloro-benzoylamino)-benzyl]-dimethyl-(tetrahydro-thien-3-yl)-ammonium iodide], for which the IC50 is 0.005 µM.
As to `CC[N+](C)(Cc1ccc(NC(=O)c2ccc(Cl)c(Cl)c2)cc1)C1CCOCC1` (stereo not shown) [Cpd 21, [4-(3,4-dichloro-benzoylamino)-benzyl]-ethyl-methyl-(tetrahydro-pyran-4-yl)-ammonium iodide], the IC50 amounted to 0.15 µM.
As to `CCC[N+](C)(Cc1ccc(NC(=O)c2ccc(Cl)c(Cl)c2)cc1)C1CCOCC1` (stereo not shown) [Cpd 22, [4-(3,4-dichloro-benzoylamino)-benzyl]-methyl-propyl-(tetrahydro-pyran-4-yl)-ammonium iodide], the IC50 was determined as 1.6 µM.
As for `Cc1c(Cl)cccc1C(=O)Nc1ccc(C[N+](C)(C)C2CCOCC2)cc1` [Cpd 25, [4-(3-chloro-2-methyl-benzoylamino)-benzyl]-dimethyl-(tetrahydro-pyran-4-yl)-ammonium iodide], the inhibition at 25 µM amounted to 15%.
For the compound `COc1ccc(C(=O)Nc2ccc(C[N+](C)(C)C3CCOCC3)cc2)cc1Cl` [Cpd 27, [4-(3-chloro-4-methoxy-benzoylamino)-benzyl]-dimethyl-(tetrahydro-pyran-4-yl)-ammonium iodide], the IC50 turned out to be 0.75 µM.
Turning to `Cc1ccc(C(=O)Nc2ccc(C[N+](C)(C)C3CCOCC3)cc2)cc1Cl` [Cpd 28, [4-(3-chloro-4-methyl-benzoylamino)-benzyl]-dimethyl-(tetrahydro-pyran-4-yl)-ammonium iodide], the IC50 came out at 0.46 µM.
Consider `Cc1cc(Cl)ccc1C(=O)Nc1ccc(C[N+](C)(C)C2CCOCC2)cc1` [Cpd 32, [4-(4-chloro-2-methyl-benzoylamino)-benzyl]-dimethyl-(tetrahydro-pyran-4-yl)-ammonium iodide], for which the IC50 amounted to 3.4 µM.
The same measure, in the same setting: in the case of `C[N+](C)(Cc1ccc(NC(=O)c2ccc(Cl)c(C(F)(F)F)c2)cc1)C1CCOCC1` [Cpd 33, [4-(4-chloro-3-trifluoromethyl-benzoylamino)-benzyl]-dimethyl-(tetrahydro-pyran-4-yl)-ammonium iodide] it was 0.4 µM; in that of `Cc1ccc(Cl)cc1C(=O)Nc1ccc(C[N+](C)(C)C2CCOCC2)cc1` [Cpd 35, [4-(5-chloro-2-methyl-benzoylamino)-benzyl]-dimethyl-(tetrahydro-pyran-4-yl)-ammonium iodide], 0.4 µM; in that of `C[N+](C)(CCc1ccc(NC(=O)c2cccc(Br)c2)cc1)C1CCOCC1` [Cpd 37, {2-[4-(3-bromo-benzoylamino)-phenyl]-ethyl}-dimethyl-(tetrahydro-pyran-4-yl)-ammonium iodide], 10.2 µM.
Consider `C[N+](C)(Cc1cccc(NC(=O)C=Cc2cccc(Br)c2)c1)C1CCOCC1` [Cpd 38, {3-[3-(3-bromo-phenyl)-acryloylamino]-benzyl}-dimethyl-(tetrahydro-pyran-4-yl)-ammonium iodide], for which the IC50 stood at 5 µM.
As for `C[N+](C)(Cc1ccc(NC(=O)C=Cc2ccc(Cl)c(Cl)c2)cc1)C1CCSCC1` [Cpd 41, {4-[3-(3,4-dichloro-phenyl)-acryloylamino]-benzyl}-dimethyl-(tetrahydro-thiopyran-4-yl)-ammonium iodide], the inhibition at 25 µM was determined as 87%.
`C[N+](C)(Cc1ccc(NC(=O)C=Cc2cc(F)cc(F)c2)cc1)C1CCOCC1` [Cpd 42, {4-[3-(3,5-difluoro-phenyl)-acryloylamino]-benzyl}-dimethyl-(tetrahydro-pyran-4-yl)-ammonium iodide]: the IC50 was 5.7 µM.
For `C[N+](C)(Cc1ccc(NC(=O)C=Cc2cccc(Br)c2)cc1)C1CCOCC1` [Cpd 43, {4-[3-(3-bromo-phenyl)-acryloylamino]-benzyl}-dimethyl-(tetrahydro-pyran-4-yl)-ammonium iodide], the IC50 came out at 0.34 µM.
In the case of `C[N+](C)(Cc1ccc(NC(=O)C=Cc2cccc(Br)c2)cc1)C1CCSCC1` [Cpd 44, {4-[3-(3-bromo-phenyl)-acryloylamino]-benzyl}-dimethyl-(tetrahydro-thiopyran-4-yl)-ammonium iodide], the IC50 came out at 14.6 µM.
As to `C[N+](C)(Cc1ccc(NC(=O)C=Cc2cccc(Cl)c2)cc1)C1CCOCC1` [Cpd 45, {4-[3-(3-chloro-phenyl)-acryloylamino]-benzyl}-dimethyl-(tetrahydro-pyran-4-yl)-ammonium iodide], the IC50 was 0.26 µM.
Turning to `C[N+](C)(Cc1ccc(NC(=O)C=Cc2ccc(Br)cc2)cc1)C1CCOCC1` [Cpd 47, {4-[3-(4-bromo-phenyl)-acryloylamino]-benzyl}-dimethyl-(tetrahydro-pyran-4-yl)-ammonium iodide], the IC50 worked out at 3.7 µM.
For the compound `C[N+]1(Cc2ccc(CNC(=O)C=Cc3ccc(Cl)c(Cl)c3)cc2)CCCCC1` [Cpd 48, 1-(4-{[3-(3,4-dichloro-phenyl)-acryloylamino]-methyl}-benzyl)-1-methyl-piperidinium iodide], the IC50 worked out at 8.4 µM.
Take `C[N+]1(Cc2ccc(CNC(=O)C=Cc3cccc(Br)c3)cc2)CCCCC1` [Cpd 49, 1-(4-{[3-(3-bromo-phenyl)-acryloylamino]-methyl}-benzyl)-1-methyl-piperidinium iodide]: the IC50 is 11.9 µM.
For `C[N+]1(Cc2ccc(NC(=O)c3ccc(Cl)c(Cl)c3)cc2)CCCCC1` [Cpd 50, 1-[4-(3,4-dichloro-benzoylamino)-benzyl]-1-methyl-piperidinium iodide], the IC50 was found to be 2.6 µM.
`C[N+]1(Cc2ccc(NC(=O)c3ccc(Cl)c(Cl)c3)cc2)CCCC1` [Cpd 51, 1-[4-(3,4-dichloro-benzoylamino)-benzyl]-1-methyl-pyrrolidinium iodide]: the IC50 was determined as 2.7 µM.
With `C[N+]1(Cc2cccc(NC(=O)C=Cc3cccc(Br)c3)c2)CCCCC1` [Cpd 52, 1-{3-[3-(3-bromo-phenyl)-acryloylamino]-benzyl}-1-methyl-piperidinium iodide], the IC50 came out at 2.6 µM.
Take `C[N+]1(Cc2ccc(NC(=O)C=Cc3ccc(Cl)c(Cl)c3)cc2)CCCCC1` [Cpd 53, 1-{4-[3-(3,4-dichloro-phenyl)-acryloylamino]-benzyl}-1-methyl-piperidinium iodide]: the IC50 is 3.2 µM.
Still for that read-out and setting: in the case of `C[N+]1(Cc2ccc(NC(=O)C=Cc3cccc(Br)c3)cc2)CCCCC1` [Cpd 55, 1-{4-[3-(3-bromo-phenyl)-acryloylamino]-benzyl}-1-methyl-piperidinium iodide] it was 5.4 µM.
